Test results reported in ChEMBL document CHEMBL1687718, “Selection and characterization of hepatitis C virus replicons dually resistant to the polymerase and protease inhibitors HCV-796 and boceprevir (SCH 503034)” (Antimicrob Agents Chemother, 2009).
pEC50: −log10 of the molar value.

Columns and labels:
Hepatitis C virus [1] = test: Antiviral activity against Hepatitis C virus genotype 1b Con1 infected in human HuH7 cells assessed as GAPDH RNA or 18S rRNA level after 3 days selected with 40 nM HCV-796 and 800 nM boceprevir by qRT-PCR analysis relative to control; type: functional, organism-based, Hepacivirus hominis, Huh-7
Hepatitis C virus [2] = test: Antiviral activity against Hepatitis C virus genotype 1b Con1 infected in human HuH7 cells assessed as GAPDH RNA or 18S rRNA level after 3 days selected with 40 nM HCV-796 and 800 nM boceprevir by qRT-PCR analysis; type: functional, organism-based, Hepacivirus hominis; details: Con1, Huh-7, 72 h
Hepatitis C virus [3] = test: Antiviral activity against Hepatitis C virus genotype 1b Con1 infected in human HuH7 cells assessed as GAPDH RNA or 18S rRNA level after 3 days by qRT-PCR analysis; type: functional, organism-based, Hepacivirus hominis; details: Con1, Huh-7, 72 h
Hepatitis C virus [4] = test: Antiviral activity against Hepatitis C virus genotype 1b Con1 harboring C316Y and C445F mutations mutant infected in human HuH7.5 cells after 72 hrs by gaussia luciferase reporter assay relative to control; type: functional, Hepacivirus hominis, Huh-7
Hepatitis C virus [5] = test: Antiviral activity against Hepatitis C virus genotype 1b Con1 harboring V170A and C316Y mutations mutant infected in human HuH7.5 cells after 72 hrs by gaussia luciferase reporter assay relative to control; type: functional, Hepacivirus hominis, Huh-7
Hepatitis C virus [6] = test: Antiviral activity against Hepatitis C virus genotype 1b Con1 harboring NS5B C445F mutant infected in human HuH7.5 cells after 72 hrs by gaussia luciferase reporter assay relative to control; type: functional, Hepacivirus hominis, Huh-7
Hepatitis C virus [7] = test: Antiviral activity against Hepatitis C virus genotype 1b Con1 harboring NS5B I424V mutant infected in human HuH7.5 cells after 72 hrs by gaussia luciferase reporter assay relative to control; type: functional, Hepacivirus hominis, Huh-7
Hepatitis C virus [8] = test: Antiviral activity against Hepatitis C virus genotype 1b Con1 harboring NS5B C316Y mutant infected in human HuH7.5 cells after 72 hrs by gaussia luciferase reporter assay relative to control; type: functional, Hepacivirus hominis, Huh-7
Hepatitis C virus [9] = test: Antiviral activity against Hepatitis C virus genotype 1b Con1 harboring NS3 K583T mutant infected in human HuH7.5 cells after 72 hrs by gaussia luciferase reporter assay relative to control; type: functional, Hepacivirus hominis, Huh-7
Hepatitis C virus [10] = test: Antiviral activity against Hepatitis C virus genotype 1b Con1 harboring NS3 G282S mutant infected in human HuH7.5 cells after 72 hrs by gaussia luciferase reporter assay relative to control; type: functional, Hepacivirus hominis, Huh-7
Hepatitis C virus [11] = test: Antiviral activity against Hepatitis C virus genotype 1b Con1 harboring NS3 E176G mutant infected in human HuH7.5 cells after 72 hrs by gaussia luciferase reporter assay relative to control; type: functional, Hepacivirus hominis, Huh-7
Hepatitis C virus [12] = test: Antiviral activity against Hepatitis C virus genotype 1b Con1 harboring NS3 V170A mutant infected in human HuH7.5 cells after 72 hrs by gaussia luciferase reporter assay relative to control; type: functional, Hepacivirus hominis, Huh-7
Hepatitis C virus [13] = test: Antiviral activity against Hepatitis C virus genotype 1b Con1 harboring NS3 V158M mutant infected in human HuH7.5 cells after 72 hrs by gaussia luciferase reporter assay relative to control; type: functional, Hepacivirus hominis, Huh-7
Hepatitis C virus [14] = test: Antiviral activity against Hepatitis C virus genotype 1b Con1 infected in human HuH7.5 cells after 72 hrs by gaussia luciferase reporter assay; type: functional, organism-based, Hepacivirus hominis; details: Con1, Huh-7, 72 h
Hepatitis C virus [15] = test: Antiviral activity against Hepatitis C virus genotype 1b Con1 infected in human HuH7 cells assessed as GAPDH RNA or 18S rRNA level after 3 days selected with […] and 400 nM boceprevir by qRT-PCR analysis relative to control; type: functional, Hepacivirus hominis, Huh-7
Hepatitis C virus [16] = test: Antiviral activity against Hepatitis C virus genotype 1b Con1 infected in human HuH7 cells assessed as GAPDH RNA or 18S rRNA level after 3 days selected with […] and 400 nM boceprevir by qRT-PCR analysis; type: functional, organism-based, Hepacivirus hominis; details: Con1, Huh-7, 72 h
Hepatitis C virus [17] = test: Antiviral activity against Hepatitis C virus genotype 1b Con1 harboring NS3 V158M mutant infected in human HuH7.5 cells after 72 hrs by gaussia luciferase reporter assay; type: functional, organism-based, Hepacivirus hominis; details: Con1, Huh-7, 72 h
Hepatitis C virus [18] = test: Antiviral activity against Hepatitis C virus genotype 1b Con1 harboring NS3 V170A mutant infected in human HuH7.5 cells after 72 hrs by gaussia luciferase reporter assay; type: functional, organism-based, Hepacivirus hominis; details: Con1, Huh-7, 72 h
Hepatitis C virus [19] = test: Antiviral activity against Hepatitis C virus genotype 1b Con1 harboring NS3 E176G mutant infected in human HuH7.5 cells after 72 hrs by gaussia luciferase reporter assay; type: functional, organism-based, Hepacivirus hominis; details: Con1, Huh-7, 72 h
Hepatitis C virus [20] = test: Antiviral activity against Hepatitis C virus genotype 1b Con1 harboring NS3 G282S mutant infected in human HuH7.5 cells after 72 hrs by gaussia luciferase reporter assay; type: functional, organism-based, Hepacivirus hominis; details: Con1, Huh-7, 72 h
Hepatitis C virus [21] = test: Antiviral activity against Hepatitis C virus genotype 1b Con1 harboring NS3 K583T mutant infected in human HuH7.5 cells after 72 hrs by gaussia luciferase reporter assay; type: functional, organism-based, Hepacivirus hominis; details: Con1, Huh-7, 72 h
Hepatitis C virus [22] = test: Antiviral activity against Hepatitis C virus genotype 1b Con1 harboring NS5B C316Y mutant infected in human HuH7.5 cells after 72 hrs by gaussia luciferase reporter assay; type: functional, organism-based, Hepacivirus hominis; details: Con1, Huh-7, 72 h
Hepatitis C virus [23] = test: Antiviral activity against Hepatitis C virus genotype 1b Con1 harboring NS5B I424V mutant infected in human HuH7.5 cells after 72 hrs by gaussia luciferase reporter assay; type: functional, organism-based, Hepacivirus hominis; details: Con1, Huh-7, 72 h
Hepatitis C virus [24] = test: Antiviral activity against Hepatitis C virus genotype 1b Con1 harboring NS5B C445F mutant infected in human HuH7.5 cells after 72 hrs by gaussia luciferase reporter assay; type: functional, organism-based, Hepacivirus hominis; details: Con1, Huh-7, 72 h
Hepatitis C virus [25] = test: Antiviral activity against Hepatitis C virus genotype 1b Con1 harboring V170A and C316Y mutations mutant infected in human HuH7.5 cells after 72 hrs by gaussia luciferase reporter assay; type: functional, organism-based, Hepacivirus hominis; details: Con1, Huh-7, 72 h
Hepatitis C virus [26] = test: Antiviral activity against Hepatitis C virus genotype 1b Con1 harboring C316Y and C445F mutations mutant infected in human HuH7.5 cells after 72 hrs by gaussia luciferase reporter assay; type: functional, organism-based, Hepacivirus hominis; details: Con1, Huh-7, 72 h

## CCC[C@]1(CC(=O)O)OCCc2c1[nH]c1c(C)ccc(C#N)c21
Hepatitis C virus [1]
  Ratio IC50: 2
Hepatitis C virus [2]
  pEC50: 5.11

## COC1=C2C[C@@H](C)C[C@H](OC)[C@H](O)[C@@H](C)/C=C(\C)[C@H](OC(N)=O)[C@@H](OC)/C=C\C=C(/C)C(=O)NC(=CC1=O)C2=O [GELDANAMYCIN]
Hepatitis C virus [1]
  Ratio IC50: 5
Hepatitis C virus [2]
  pEC50: 8.92
Hepatitis C virus [3]
  pEC50: 9.60

## CC(=O)c1cc(F)c(Br)cc1NCC(=O)Nc1ccccc1C(=O)O
Hepatitis C virus [1]; Hepatitis C virus, Con1, Huh-7, 72 h
  pEC50: < 7.52
Hepatitis C virus [2]
  pEC50: < 4.82
Hepatitis C virus [3]
  pEC50: 6.30

## C[C@@]1(O)[C@H](O)[C@@H](CO)O[C@H]1n1ccc(N)nc1=O
Hepatitis C virus [1]
  Ratio IC50: 1
Hepatitis C virus [2]
  pEC50: 5.79
Hepatitis C virus [3]
  pEC50: 5.94

## CO[C@H]1/C=C\C=C(/C)C(=O)NC2=CC(=O)C(NCCN(C)C)=C(C[C@@H](C)C[C@H](OC)[C@H](O)[C@@H](C)/C=C(\C)[C@@H]1OC(N)=O)C2=O [ALVESPIMYCIN]
Hepatitis C virus [1]
  Ratio IC50: 3
Hepatitis C virus [2]
  pEC50: 8.51
Hepatitis C virus [3]
  pEC50: 8.92

## CC(=O)c1cc(F)c(Cl)cc1NCC(=O)Nc1ccccc1C(=O)O
Hepatitis C virus [1]
  Ratio IC50: >15
Hepatitis C virus [2]
  pEC50: < 4.70
Hepatitis C virus [3]
  pEC50: 5.88

## CNC(=O)c1c(-c2ccc(F)cc2)oc2cc(N(CCO)S(C)(=O)=O)c(C3CC3)cc12 [NESBUVIR]
Hepatitis C virus [4]
  Ratio IC50: 1834
Hepatitis C virus [5]
  Ratio IC50: 95
Hepatitis C virus [6]
  Ratio IC50: 8
Hepatitis C virus [7]
  Ratio IC50: 1
Hepatitis C virus [8]
  Ratio IC50: 138
Hepatitis C virus [9]
  Ratio IC50: 1
Hepatitis C virus [10]
  Ratio IC50: 2
Hepatitis C virus [11]
  Ratio IC50: 3
Hepatitis C virus [12]
  Ratio IC50: 1
Hepatitis C virus [13]
  Ratio IC50: 1
Hepatitis C virus [14]
  pEC50: 7.85
Hepatitis C virus [1]
  Ratio IC50: 1403
Hepatitis C virus [2]
  pEC50: 5.47
Hepatitis C virus [15]
  Ratio IC50: 1025
Hepatitis C virus [3]
  pEC50: 8.62
Hepatitis C virus [16]
  pEC50: 5.61
Hepatitis C virus [17]
  pEC50: 8.05
Hepatitis C virus [18]
  pEC50: 7.89
Hepatitis C virus [19]
  pEC50: 7.42
Hepatitis C virus [20]
  pEC50: 7.66
Hepatitis C virus [21]
  pEC50: 7.82
Hepatitis C virus [22]
  pEC50: 5.71
Hepatitis C virus [23]
  pEC50: 7.89
Hepatitis C virus [24]
  pEC50: 6.94
Hepatitis C virus [25]
  pEC50: 5.87
Hepatitis C virus [26]
  pEC50: 4.59

## CC(C)(C)NC(=O)N[C@H](C(=O)N1C[C@H]2[C@@H]([C@H]1C(=O)NC(CC1CCC1)C(=O)C(N)=O)C2(C)C)C(C)(C)C (some centres undefined) [BOCEPREVIR]
Hepatitis C virus [4]
  Ratio IC50: 1
Hepatitis C virus [5]
  Ratio IC50: 7
Hepatitis C virus [6]
  Ratio IC50: 1
Hepatitis C virus [7]
  Ratio IC50: 1
Hepatitis C virus [8]
  Ratio IC50: 1
Hepatitis C virus [9]
  Ratio IC50: 1
Hepatitis C virus [10]
  Ratio IC50: 3
Hepatitis C virus [11]
  Ratio IC50: 4
Hepatitis C virus [12]
  Ratio IC50: 5
Hepatitis C virus [13]
  Ratio IC50: 1
Hepatitis C virus [14]
  pEC50: 6.22
Hepatitis C virus [1]
  Ratio IC50: 10
Hepatitis C virus [2]
  pEC50: 5.80
Hepatitis C virus [15]
  Ratio IC50: 8
Hepatitis C virus [3]
  pEC50: 6.78
Hepatitis C virus [16]
  pEC50: 5.88
Hepatitis C virus [17]
  pEC50: 6.42
Hepatitis C virus [18]
  pEC50: 5.50
Hepatitis C virus [19]
  pEC50: 5.67
Hepatitis C virus [20]
  pEC50: 5.71
Hepatitis C virus [21]
  pEC50: 6.13
Hepatitis C virus [22]
  pEC50: 6.11
Hepatitis C virus [23]
  pEC50: 6.19
Hepatitis C virus [24]
  pEC50: 6.10
Hepatitis C virus [25]
  pEC50: 5.36
Hepatitis C virus [26]
  pEC50: 6.09
